Data published in US20230019491A1, “PYRIMIDINE TBK/IKKe INHIBITOR COMPOUNDS AND USES THEREOF” (Merck Patent GmbH, priority 2017, published 2023).
Where a name gives a salt, the structure may show the parent alone.

Assays:
IKKε = target: T1, IKKε (Homo sapiens, UniProt Q14164); assay: IKKε biochemical assay; conditions: 10 point 1:4 dose response, 30 uM top concentration, 90 min at 25° C., LabChip EZ Reader II; read-out: IKKε_IC50
T1 sequence (Q14164 1-716): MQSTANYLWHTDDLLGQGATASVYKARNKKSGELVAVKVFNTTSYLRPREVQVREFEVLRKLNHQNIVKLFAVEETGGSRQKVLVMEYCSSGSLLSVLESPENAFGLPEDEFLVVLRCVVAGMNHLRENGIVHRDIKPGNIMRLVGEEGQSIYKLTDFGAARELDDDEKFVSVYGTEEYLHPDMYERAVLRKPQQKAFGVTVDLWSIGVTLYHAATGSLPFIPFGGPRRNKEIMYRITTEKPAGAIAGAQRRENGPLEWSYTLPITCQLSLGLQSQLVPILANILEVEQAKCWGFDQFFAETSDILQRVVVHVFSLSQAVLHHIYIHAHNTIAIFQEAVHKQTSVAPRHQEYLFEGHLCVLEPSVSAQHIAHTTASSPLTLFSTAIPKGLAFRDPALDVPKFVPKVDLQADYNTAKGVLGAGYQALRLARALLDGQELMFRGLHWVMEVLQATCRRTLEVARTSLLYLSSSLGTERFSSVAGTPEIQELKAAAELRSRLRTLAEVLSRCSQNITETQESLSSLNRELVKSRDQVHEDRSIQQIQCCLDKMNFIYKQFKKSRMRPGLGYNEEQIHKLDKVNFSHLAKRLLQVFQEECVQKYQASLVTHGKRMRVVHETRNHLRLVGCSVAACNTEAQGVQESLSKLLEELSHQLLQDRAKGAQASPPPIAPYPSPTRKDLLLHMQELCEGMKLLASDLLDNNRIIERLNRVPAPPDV
Outline: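 Mobility-shift LabChip read-out followed a 90 min, 25° C. reaction of IKKε with substrate and test compound, with DMSO held at 1% final. Reactions were ended with stop buffer. Wells with 10 uM final staurosporine defined complete inhibition, and DMSO-only wells the uninhibited level.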

TBK1 = target: T2, TBK1 (Homo sapiens, UniProt Q9UHD2); assay: TBK biochemical assay; conditions: 10 point 1:4 dose response, 30 uM top concentration, 90 min at 25° C., LabChip EZ Reader II; read-out: TBK1_IC50
T2 sequence (Q9UHD2 1-729): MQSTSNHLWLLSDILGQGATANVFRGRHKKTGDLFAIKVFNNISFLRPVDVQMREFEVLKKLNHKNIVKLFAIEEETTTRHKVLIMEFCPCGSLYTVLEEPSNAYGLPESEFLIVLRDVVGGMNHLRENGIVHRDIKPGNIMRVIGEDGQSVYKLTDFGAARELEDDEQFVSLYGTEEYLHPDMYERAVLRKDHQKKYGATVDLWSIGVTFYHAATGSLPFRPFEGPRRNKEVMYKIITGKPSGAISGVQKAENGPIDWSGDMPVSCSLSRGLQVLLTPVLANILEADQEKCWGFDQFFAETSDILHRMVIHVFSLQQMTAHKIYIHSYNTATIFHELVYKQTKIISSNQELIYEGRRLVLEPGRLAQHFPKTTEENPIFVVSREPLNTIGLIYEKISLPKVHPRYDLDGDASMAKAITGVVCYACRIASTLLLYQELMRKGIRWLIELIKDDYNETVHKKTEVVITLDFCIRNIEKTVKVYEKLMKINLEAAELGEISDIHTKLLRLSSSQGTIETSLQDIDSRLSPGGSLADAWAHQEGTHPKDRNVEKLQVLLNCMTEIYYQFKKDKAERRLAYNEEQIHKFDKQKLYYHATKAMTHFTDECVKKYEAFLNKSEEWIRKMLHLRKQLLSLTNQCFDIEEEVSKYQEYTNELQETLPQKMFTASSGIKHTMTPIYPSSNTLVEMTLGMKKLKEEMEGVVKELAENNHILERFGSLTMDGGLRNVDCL
Outline: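 Read-out was a Caliper LabChip mobility-shift assay, run after a 90-min, 25 °C reaction of TBK1 with substrate and compounds, quenched with stop buffer. Control wells received staurosporine at 10 uM final.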

SMILES | IC50 (IKKε) [nM] | IC50 (TBK1) [nM]
COc1nc(Nc2nccc(-c3ccc(OC4CCN(C(=O)[C@@H](C)O)CC4(F)F)c(C#N)c3)n2)ccc1C(=O)N(C)C (stereo partly drawn) [Example 325, 6-([4-[3-cyano-4-([3,3-difluoro-1-[(2R)-2-hydroxypropanoyl]piperidin-4-yl]oxy)phenyl]pyrimidin-2-yl]amino)-2-methoxy-N,N-dimethylpyridine-3-carboxamide] | < 100 | < 100
COc1nc(Nc2nccc(-c3ccc(OC4CCN(C(=O)[C@H](O)C(C)C)CC4(F)F)c(C#N)c3)n2)ccc1C1CCN(C2COC2)CC1 (stereo partly drawn) [Example 238, 2-[3,3-Difluoro-1-((R)-2-hydroxy-3-methyl-butyryl)-piperidin-4-yloxy]-5-[2-(2-methoxy-1′-oxetan-3-yl-1′,2′,3′,4′,5′,6′-hexahydro-[3,4′]bipyridinyl-6-ylamino)-pyrimidin-4-yl]-benzonitrile] | 100 to 1000 | 100 to 1000
N#Cc1cc(-c2ccnc(Nc3ccc(N4CCN(C5COC5)CC4)cc3)n2)ccc1OC1CCN(C(=O)CO)CC1(F)F (centres unmarked) [Example 137, 2-[[3,3-difluoro-1-(2-hydroxyacetyl)piperidin-4-yl]oxy]-5-[2-([4-[4-(oxetan-3-yl)piperazin-1-yl]phenyl]amino)pyrimidin-4-yl]benzonitrile] | < 100 | < 100
CN1CCC(c2ccc(Nc3nccc(-c4ccc(OC5CCN(C(=O)CO)CC5(F)F)c(C#N)c4)n3)cc2)CC1 (centres unmarked) [Example 148, 2-[[3,3-difluoro-1-(2-hydroxyacetyl)piperidin-4-yl]oxy]-5-(2-[[4-(1-methylpiperidin-4-yl)phenyl]amino]pyrimidin-4-yl)benzonitrile] | < 100 | < 100
N#Cc1cc(-c2ccnc(Nc3ccc(C4CCN(C5COC5)CC4)cc3)n2)ccc1OC1CCOCC1 [Example 151, 5-{2-[4-(1-Oxetan-3-yl-piperidin-4-yl)-phenylamino]-pyrimidin-4-yl}-2-(tetrahydro-pyran-4-yloxy)-benzonitrile] | < 100 | < 100
COc1nc(Nc2nccc(-c3ccc(OC4CCOCC4)c(C#N)n3)n2)ccc1C(=O)NC1CN2CCC1CC2 (centres unmarked) [Example 29, N-[1-azabicyclo[2.2.2]octan-3-yl]-6-([4-[6-cyano-5-(oxan-4-yloxy)pyridin-2-yl]pyrimidin-2-yl]amino)-2-methoxypyridine-3-carboxamide] | < 100 | < 100
COc1nc(Nc2ncc(F)c(-c3ccc(O[C@@H]4CCN(C(=O)[C@H](C)O)CC4(F)F)c(C#N)c3)n2)ccc1N1CCN(C2COC2)CC1 [Example 289, 2-[[(4R)-3,3-difluoro-1-[(2S)-2-hydroxypropanoyl]piperidin-4-yl]oxy]-5-[5-fluoro-2-([6-methoxy-5-[4-(oxetan-3-yl)piperazin-1-yl]pyridin-2-yl]amino)pyrimidin-4-yl]benzonitrile] | < 100 | < 100
C[C@@H](O)C(=O)N1CCC(Oc2ccc(-c3ccnc(Nc4cccnc4)n3)cc2C#N)C(F)(F)C1 (stereo partly drawn) [Example 206, 2-([33-difluoro-1-[(2R)-2-hydroxypropanoyl]piperidin-4-yl]oxy)-5-[2-[(pyridin-3-yl)amino]pyrimidin-4-yl]benzonitrile] | < 100 | < 100
C[C@@H](O)C(=O)N1CCC(Oc2ccc(-c3ccnc(Nc4ccc(C5CCN(C6COC6)CC5)cc4)n3)cc2C#N)C(F)(F)C1 (stereo partly drawn) [Example 226, 2-([33-difluoro-1-[(2R)-2-hydroxypropanoyl]piperidin-4-yl]oxy)-5-[2-([4-[1-(oxetan-3-yl)piperidin-4-yl]phenyl]amino)pyrimidin-4-yl]benzonitrile] | < 100 | < 100
COc1cccc(Nc2nccc(-c3ccc(OC4CCN(C(=O)c5n[nH]c(C)n5)CC4)c(C#N)c3)n2)n1 [Example 218, 5-[2-[(6-methoxypyridin-2-yl)amino]pyrimidin-4-yl]-2-[[1-(5-methyl-1H-1,2,4-triazole-3-carbonyl)piperidin-4-yl]oxy]benzonitrile] | < 100 | < 100
COc1nc(Nc2nccc(-c3ccc(OC4CCN(C(=O)c5cnco5)CC4)c(C#N)c3)n2)ccc1C(=O)N(C)C [Example 79, 6-([4-[3-cyano-4-([1-[(1,3-oxazol-5-yl)carbonyl]piperidin-4-yl]oxy)phenyl]pyrimidin-2-yl]amino)-2-methoxy-N,N-dimethylpyridine-3-carboxamide] | < 100 | < 100
COc1nc(Nc2nccc(-c3ccc(OC4CCOCC4)c(C#N)c3)n2)ccc1N1C[C@@H](C)N(C)[C@@H](C)C1 [Example 36, 5-[2-([6-methoxy-5-[cis-3,4,5-trimethylpiperazin-1-yl]pyridin-2-yl]amino)pyrimidin-4-yl]-2-(oxan-4-yloxy)benzonitrile] | < 100 | < 100
COc1nc(Nc2nccc(-c3ccc(N4CCC5(CC4)CNC5)c(C#N)c3)n2)ccc1N1CCN(C2COC2)CC1 [Example 313, 2-(2,7-Diaza-spiro[3.5]non-7-yl)-5-{2-[6-methoxy-5-(4-oxetan-3-yl-piperazin-1-yl)-pyridin-2-ylamino]-pyrimidin-4-yl}-benzonitrile] | 100 to 1000 | < 100
COc1cc(Nc2nccc(-c3ccc(O[C@@H]4CCN(C(=O)[C@@H](C)O)CC4(F)F)c(C#N)c3)n2)ccn1 [Example 231, 2-((R)-3,3-difluoro-1-((R)-2-hydroxypropanoyl)piperidin-4-yloxy)-5-(2-(2-methoxypyridin-4-ylamino)pyrimidin-4-yl)benzonitrile] | < 100 | < 100
COc1cccc(Nc2nccc(-c3ccc(OC4CCN(C(=O)[C@@H](O)CO)CC4(F)F)c(C#N)c3)n2)n1 (stereo partly drawn) [Example 242, 2-[1-((S)-2,3-Dihydroxy-propionyl)-3,3-difluoro-piperidin-4-yloxy]-5-[2-(6-methoxy-pyridin-2-ylamino)-pyrimidin-4-yl]-benzonitrile] | < 100 | < 100
CN1CCN(c2ccc(Nc3nccc(-c4ccc(OC5CCN(C)C5)c(C#N)c4)n3)nc2)CC1 (centres unmarked) [Example 82, 5-(2-[[5-(4-methylpiperazin-1-yl)pyridin-2-yl]amino]pyrimidin-4-yl)-2-[(1-methylpyrrolidin-3-yl)oxy]benzonitrile hydrochloride] | 1000 to 5000 | > 5000
COc1nc(Nc2nccc(-c3ccc(OC4CCN(C(=O)C5(O)CC5)CC4(F)F)c(C#N)c3)n2)ccc1C1CCN(C2COC2)CC1 (centres unmarked) [Example 237, 2-[3,3-Difluoro-1-(1-hydroxy-cyclopropanecarbonyl)-piperidin-4-yloxy]-5-[2-(2-methoxy-1′-oxetan-3-yl-1′,2′,3′,4′,5′,6′-hexahydro-[3,4′]bipyridinyl-6-ylamino)-pyrimidin-4-yl]-benzonitrile] | < 100 | < 100
COc1nc(Nc2nccc(-c3ccc(OCC4CN(C(=O)[C@H](C)O)C4)c(C#N)c3)n2)ccc1N1CCN(C2COC2)CC1 [Example 279, 2-([1-[(2S)-2-hydroxypropanoyl]azetidin-3-yl]methoxy)-5-[2-([6-methoxy-5-[4-(oxetan-3-yl)piperazin-1-yl]pyridin-2-yl]amino)pyrimidin-4-yl]benzonitrile] | 100 to 1000 | < 100
COc1nc(Nc2nccc(-c3ccc(OC4CCOCC4)c(C#N)c3)n2)ccc1N1C[C@@H](C)N(C2COC2)[C@@H](C)C1 [Example 38, 5-[2-([5-[cis-3,5-dimethyl-4-(oxetan-3-yl)piperazin-1-yl]-6-methoxypyridin-2-yl]amino)pyrimidin-4-yl]-2-(oxan-4-yloxy)benzonitrile] | < 100 | < 100
